From patent US8415469B2, “Compounds and methods for kinase modulation, and indications therefor” (Plexxikon Inc., priority 2005, dated 2013)
pIC50: −log10 of the molar value.

Experiments:
Assay type in all cases: biochemical
[1] = target: T1, Kdr (Homo sapiens, UniProt P35968); experiment: Z'-Lyte FRET kinase assay (Invitrogen), Kdr; conditions: read-out: IC50, activity toward kinase Kdr
T1 construct: purchased Invitrogen (assay run by Invitrogen)

[2] = target: T2, MAPKAPK2 (Homo sapiens, UniProt P49137); experiment: Z'-Lyte FRET kinase assay (Invitrogen), MAPKAPK2; conditions: read-out: IC50, activity toward kinase MAPKAPK2
T2 construct: purchased Invitrogen (assay run by Invitrogen)
T2 sequence (P49137 whole entry): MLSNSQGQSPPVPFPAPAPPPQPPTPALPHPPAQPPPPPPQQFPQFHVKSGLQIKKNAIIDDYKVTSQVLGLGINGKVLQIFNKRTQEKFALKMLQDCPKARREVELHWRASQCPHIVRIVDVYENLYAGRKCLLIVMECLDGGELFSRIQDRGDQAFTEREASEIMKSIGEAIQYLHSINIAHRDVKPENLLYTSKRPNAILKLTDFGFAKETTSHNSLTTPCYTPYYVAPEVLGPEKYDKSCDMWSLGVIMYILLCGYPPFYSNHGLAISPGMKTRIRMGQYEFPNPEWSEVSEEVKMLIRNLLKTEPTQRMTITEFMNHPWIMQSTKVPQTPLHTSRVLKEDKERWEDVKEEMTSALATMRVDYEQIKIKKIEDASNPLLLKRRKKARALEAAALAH
Excerpt: The effect of potential modulators of kinase activity can be measured in a variety of different assays known in the art. For example, direct radiometric, indirect FRET or AlphaScreen assays may be used to assess the level of phosphorylation of a substrate in the presence of test compounds in order to determine the inhibitory affect of the compound on the kinase. Invitrogen (Carlsbad, Calif.) uses a FRET based assay for Btk, EGFR, EphB2, Flt3, lrak4, Kdr, MAP2K1, MAPKAPK2, PDGFRB, PKC theta, Stk6 and Yes. For these assays, compounds of the invention were screened by Invitrogen using Z′-Lyte™ kinase assay.
Briefly, the Invitrogen kinase assay involves use of a specific peptide substrate optimized for each kinase, containing a fluorophore at each end that make up the FRET pair. The peptide sensitivity to proteolytic cleavage depends on phosphorylation of the peptide. Non-phosphorylated peptide is cleaved by a protease while peptide phosphorylated by the kinase is not cleaved. Cleavage of the peptide disrupts the FRET between the donor (coumarin) and acceptor (fluorescein) fluorophores, resulting in an increase in the ratio of donor emission to acceptor emission. The emission ratio of coumarin to fluorescein is used to assess the reaction progress. The extent of phosphorylation is determined from the emission ratio, which is low when the kinase is active (phosphorylated peptide is not cleaved, FRET pair connected) or higher for inhibited kinase (non-phosphorylated peptide is cleaved, FRET pair separated). Thus, the assay involves a kinase reaction in the presence of varying concentrations of a given compound, a development reaction with site specific protease, and detection of the fluorescent emission ratio of coumarin and fluorscein. […] Reaction conditions for each kinase are determined to provide optimal reaction times, incubation temperature, kinase and ATP concentrations. Test samples are made up in 1× kinase buffer (50 mM HEPES pH 7.5, 50 mM MgCl2, 5 mM EGTA, 0.05% BRIJ-35) and compound at desired concentration prepared in DMSO such that the final DMSO is 1%. […] Typically, assay plates are prepared to 10 μl final volume per sample, adding 2.5 μl of compound at 4× the desired concentration in 4% DMSO (serial dilution of compound provides concentration curve), 5 μl of the desired kinase mixed with Z′-LYTE™ peptide substrate (2× in 2× kinase buffer, final peptide at 2 μM), and 2.5 μl of 4×ATP solution. All kinase except for MAP2K1 were at 10 μM ATP in the kinase reaction, while MAP2K1 was at 100 μM. Samples are mixed and the kinase reaction is incubated 1 hour at room temperature, after which 5 μl of development solution is added and mixed. After incubation for another 1 hour at room temperature, 5 μl of stop reagent is added to each sample and mixed. The fluorescence signals are measured to determine the emission ratio.

[3] = target: T3, Stk6 (Homo sapiens, UniProt O14965); experiment: Z'-Lyte FRET kinase assay (Invitrogen), Stk6; conditions: read-out: IC50, activity toward kinase Stk6
T3 construct: purchased Invitrogen (Carlsbad, Calif.), screening service
T3 sequence (O14965 1-403): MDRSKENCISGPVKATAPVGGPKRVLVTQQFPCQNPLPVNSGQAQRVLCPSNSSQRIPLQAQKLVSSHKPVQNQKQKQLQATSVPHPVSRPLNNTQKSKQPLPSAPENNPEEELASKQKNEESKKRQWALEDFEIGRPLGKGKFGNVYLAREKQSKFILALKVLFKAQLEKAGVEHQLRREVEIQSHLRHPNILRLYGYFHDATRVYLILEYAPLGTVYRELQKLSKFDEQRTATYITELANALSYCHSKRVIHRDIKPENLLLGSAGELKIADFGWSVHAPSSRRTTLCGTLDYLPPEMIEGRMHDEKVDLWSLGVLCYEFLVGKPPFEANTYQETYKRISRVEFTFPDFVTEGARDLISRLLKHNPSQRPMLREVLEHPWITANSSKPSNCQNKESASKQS

[4] = target: T4, Kit (Homo sapiens, UniProt P10721); experiment: AlphaScreen kinase assay, Kit; conditions: read-out: IC50, activity toward kinase Kit
T4 construct: P1332.N6 BI PTP KIT M552-K948-X COD; His6 (N); made in house; host or cells: E. coli (PTP1B co-expressed)
T4 sequence (P10721 with tags, fused parts or gaps): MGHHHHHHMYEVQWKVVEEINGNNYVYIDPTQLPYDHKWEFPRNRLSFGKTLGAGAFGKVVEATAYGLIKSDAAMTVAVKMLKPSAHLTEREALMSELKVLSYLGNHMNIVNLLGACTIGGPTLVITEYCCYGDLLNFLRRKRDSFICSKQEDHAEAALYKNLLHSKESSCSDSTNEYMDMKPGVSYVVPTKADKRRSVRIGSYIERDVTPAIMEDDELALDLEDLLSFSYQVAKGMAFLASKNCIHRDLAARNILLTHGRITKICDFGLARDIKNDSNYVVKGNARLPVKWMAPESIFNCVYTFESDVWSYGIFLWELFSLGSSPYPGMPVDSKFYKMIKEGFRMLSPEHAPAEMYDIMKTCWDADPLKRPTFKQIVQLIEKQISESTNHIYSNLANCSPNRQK

[5] = target: T5, IKK beta (Homo sapiens, UniProt O14920); experiment: AlphaScreen kinase assay, IKK beta; conditions: read-out: IC50, activity toward kinase IKK beta
T5 sequence (O14920 1-756): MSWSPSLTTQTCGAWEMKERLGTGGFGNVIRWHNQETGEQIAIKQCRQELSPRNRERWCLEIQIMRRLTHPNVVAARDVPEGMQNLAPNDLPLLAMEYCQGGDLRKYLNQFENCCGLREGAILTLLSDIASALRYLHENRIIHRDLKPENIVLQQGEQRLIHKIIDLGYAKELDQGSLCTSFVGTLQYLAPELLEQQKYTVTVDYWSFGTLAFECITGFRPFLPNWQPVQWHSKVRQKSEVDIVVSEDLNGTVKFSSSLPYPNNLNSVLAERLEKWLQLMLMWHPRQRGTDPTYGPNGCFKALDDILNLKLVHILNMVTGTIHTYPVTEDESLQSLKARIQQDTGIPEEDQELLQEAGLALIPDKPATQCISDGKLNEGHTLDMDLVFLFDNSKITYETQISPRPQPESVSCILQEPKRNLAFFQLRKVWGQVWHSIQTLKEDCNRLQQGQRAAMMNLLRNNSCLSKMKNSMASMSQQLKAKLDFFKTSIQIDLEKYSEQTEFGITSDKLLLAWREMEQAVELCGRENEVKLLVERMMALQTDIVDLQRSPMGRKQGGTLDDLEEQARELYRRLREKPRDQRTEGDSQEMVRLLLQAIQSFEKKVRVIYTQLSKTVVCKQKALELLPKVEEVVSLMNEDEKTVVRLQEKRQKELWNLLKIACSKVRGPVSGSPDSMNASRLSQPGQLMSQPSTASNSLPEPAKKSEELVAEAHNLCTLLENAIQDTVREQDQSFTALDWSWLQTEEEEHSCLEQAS

[6] = target: Gsk3β (Homo sapiens, UniProt P49841); experiment: AlphaScreen kinase assay, Gsk3β; conditions: read-out: IC50, activity toward kinase Gsk3β
Gsk3β, sequence (P49841 whole entry): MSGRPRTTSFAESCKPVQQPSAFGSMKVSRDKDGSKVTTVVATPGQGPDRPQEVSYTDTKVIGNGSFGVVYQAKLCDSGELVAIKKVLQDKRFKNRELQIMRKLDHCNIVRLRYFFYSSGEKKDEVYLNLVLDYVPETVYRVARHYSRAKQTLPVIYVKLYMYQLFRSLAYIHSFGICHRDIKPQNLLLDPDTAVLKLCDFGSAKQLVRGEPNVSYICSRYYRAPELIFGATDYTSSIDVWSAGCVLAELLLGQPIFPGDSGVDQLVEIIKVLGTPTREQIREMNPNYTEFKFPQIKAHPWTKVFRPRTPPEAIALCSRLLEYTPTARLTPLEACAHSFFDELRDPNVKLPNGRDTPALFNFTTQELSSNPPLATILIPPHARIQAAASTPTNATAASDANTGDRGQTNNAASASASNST
Method in brief: (§1)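 Here, phosphorylation of a biotin-tagged peptide was sensed by proximity of streptavidin donor and antibody-bearing acceptor beads. Test compounds covered 8 concentrations by 1:3 serial dilution of 20 mM DMSO stocks.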

[7] = target: T6, Pyk2 (Homo sapiens, UniProt Q14289); experiment: AlphaScreen kinase assay, Pyk2; conditions: read-out: IC50, activity toward kinase Pyk2
T6 construct: purchased Upstate Biotechnology

[8] = target: MAP4K4 (Homo sapiens, UniProt O95819); experiment: AlphaScreen kinase assay, MAP4K4; conditions: read-out: IC50, activity toward kinase MAP4K4
MAP4K4, sequence (O95819 whole entry): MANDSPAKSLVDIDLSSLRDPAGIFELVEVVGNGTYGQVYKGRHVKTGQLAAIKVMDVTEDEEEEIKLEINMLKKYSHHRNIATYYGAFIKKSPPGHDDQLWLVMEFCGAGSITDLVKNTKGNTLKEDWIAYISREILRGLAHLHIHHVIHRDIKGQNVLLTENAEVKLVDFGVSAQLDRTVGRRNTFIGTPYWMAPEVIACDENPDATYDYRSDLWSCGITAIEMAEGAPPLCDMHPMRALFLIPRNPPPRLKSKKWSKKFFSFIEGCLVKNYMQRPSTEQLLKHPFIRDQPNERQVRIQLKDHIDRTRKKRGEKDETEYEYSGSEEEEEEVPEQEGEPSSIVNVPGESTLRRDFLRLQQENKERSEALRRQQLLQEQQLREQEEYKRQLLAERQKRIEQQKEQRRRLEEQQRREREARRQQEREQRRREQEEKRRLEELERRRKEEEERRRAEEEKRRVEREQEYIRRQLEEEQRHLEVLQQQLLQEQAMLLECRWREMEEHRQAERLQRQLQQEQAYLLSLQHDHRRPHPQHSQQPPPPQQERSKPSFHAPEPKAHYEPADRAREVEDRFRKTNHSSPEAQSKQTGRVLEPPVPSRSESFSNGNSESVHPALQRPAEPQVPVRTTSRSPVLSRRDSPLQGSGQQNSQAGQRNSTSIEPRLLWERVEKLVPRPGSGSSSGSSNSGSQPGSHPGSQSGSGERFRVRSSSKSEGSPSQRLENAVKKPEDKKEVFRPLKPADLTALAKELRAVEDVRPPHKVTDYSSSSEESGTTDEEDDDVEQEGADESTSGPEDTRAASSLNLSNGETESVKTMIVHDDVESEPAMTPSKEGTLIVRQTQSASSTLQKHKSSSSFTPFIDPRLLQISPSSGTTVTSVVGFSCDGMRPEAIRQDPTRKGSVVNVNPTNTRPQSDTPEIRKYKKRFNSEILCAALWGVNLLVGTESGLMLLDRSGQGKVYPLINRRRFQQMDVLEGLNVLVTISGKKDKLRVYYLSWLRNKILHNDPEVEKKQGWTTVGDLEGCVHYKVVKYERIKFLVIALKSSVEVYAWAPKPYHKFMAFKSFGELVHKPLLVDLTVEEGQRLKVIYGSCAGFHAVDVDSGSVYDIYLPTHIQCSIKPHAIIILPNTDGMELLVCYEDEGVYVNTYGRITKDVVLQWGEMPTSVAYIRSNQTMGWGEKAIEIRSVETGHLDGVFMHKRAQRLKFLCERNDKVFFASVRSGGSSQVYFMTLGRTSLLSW

[9] = target: Csk (Homo sapiens, UniProt P41240); experiment: AlphaScreen kinase assay, Csk; conditions: read-out: IC50, activity toward kinase Csk
Excerpt: (§2) AlphaScreen assay was used to screen additional kinases. The assay is similarly dependent on the phosphorylation of a peptide substrate. In this assay, an antibody that recognizes phosphorylated substrate is bound to an acceptor bead. The peptide substrate is attached to biotin, which binds to a donor head that contains streptavidin. Thus phosphorylated substrate is bound by antibody and streptavidin, bringing the donor and acceptor heads into close proximity when kinase is not inhibited. The donor produces singlet oxygen which results in emission from the acceptor when they are in close proximity. Conversely, when kinase is inhibited, the donor and acceptor beads are not associated and the emission from the acceptor is reduced.
(§3) AlphaScreen assays were done using compounds dissolved in DMSO to a concentration of 20 mM. The compounds were diluted accordingly to the desired final concentrations in each sample well, using 1:3 serial dilution for a total of 8 concentration points.

[10] = target: T7, Btk (Homo sapiens, UniProt Q06187); experiment: Z'-Lyte FRET kinase assay (Invitrogen), Btk; conditions: read-out: IC50, activity toward kinase Btk
T7 construct: purchased Invitrogen (assay run by Invitrogen)

[11] = target: T8, FGFR1 (Homo sapiens, UniProt P11362, C488A/C584S); experiment: AlphaScreen kinase assay, FGFR1; conditions: read-out: IC50, activity toward kinase FGFR
T8 construct: P1351.pET N6 BI-PTP FGFR A458-E765-X C488A, C584S; made in house; host or cells: E. coli (PTP1B co-expressed)
T8 sequence (P11362 458-765 C488A/C584S): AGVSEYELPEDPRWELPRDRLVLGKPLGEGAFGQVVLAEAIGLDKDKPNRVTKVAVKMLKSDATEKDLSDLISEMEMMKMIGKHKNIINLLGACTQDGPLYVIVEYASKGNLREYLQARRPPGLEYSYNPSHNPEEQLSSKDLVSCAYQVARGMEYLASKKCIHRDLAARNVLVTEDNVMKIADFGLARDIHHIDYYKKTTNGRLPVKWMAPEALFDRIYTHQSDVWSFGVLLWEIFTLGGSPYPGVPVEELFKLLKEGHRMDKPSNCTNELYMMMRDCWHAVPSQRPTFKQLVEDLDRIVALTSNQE

[12] = target: T9, Abl (Homo sapiens, UniProt P00519); experiment: AlphaScreen kinase assay, Abl; conditions: read-out: activity toward kinase Abl, IC50
T9 construct: P1121. pET-SPEC BI-PTP Abl G227-V515-X; His6 (N); made in house; host or cells: E. coli (PTP1B co-expressed)
T9 sequence (P00519 with tags, fused parts or gaps): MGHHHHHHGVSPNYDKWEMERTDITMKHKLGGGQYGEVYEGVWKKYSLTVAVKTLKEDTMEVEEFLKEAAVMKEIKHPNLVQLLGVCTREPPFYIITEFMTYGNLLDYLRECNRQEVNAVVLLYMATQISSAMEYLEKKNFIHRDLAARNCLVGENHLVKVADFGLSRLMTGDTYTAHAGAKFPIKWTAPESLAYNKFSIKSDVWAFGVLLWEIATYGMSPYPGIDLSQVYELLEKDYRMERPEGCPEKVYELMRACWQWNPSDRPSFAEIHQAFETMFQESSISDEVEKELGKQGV
Method in brief: as §1

[13] = target: Brk (Homo sapiens, UniProt Q13882); experiment: AlphaScreen kinase assay, Brk; conditions: read-out: IC50, activity toward kinase Brk
Brk, sequence (Q13882 whole entry): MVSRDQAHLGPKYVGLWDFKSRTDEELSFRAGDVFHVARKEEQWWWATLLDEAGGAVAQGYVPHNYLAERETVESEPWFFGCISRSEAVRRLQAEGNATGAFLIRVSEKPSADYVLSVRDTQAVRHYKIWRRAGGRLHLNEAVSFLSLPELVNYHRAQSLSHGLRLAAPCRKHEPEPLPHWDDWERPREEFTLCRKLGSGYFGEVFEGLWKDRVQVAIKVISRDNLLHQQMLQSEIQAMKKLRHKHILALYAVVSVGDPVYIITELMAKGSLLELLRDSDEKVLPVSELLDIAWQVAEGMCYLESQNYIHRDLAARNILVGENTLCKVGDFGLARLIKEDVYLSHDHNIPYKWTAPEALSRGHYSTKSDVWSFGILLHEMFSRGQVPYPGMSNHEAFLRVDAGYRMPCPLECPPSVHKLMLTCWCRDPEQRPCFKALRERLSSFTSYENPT
Excerpt: as §2, §3

[14] = target: T10, B-Raf (Homo sapiens, UniProt P15056); experiment: AlphaScreen kinase assay, B-Raf; conditions: read-out: IC50, activity toward kinase B-Raf
T10 construct: purchased Upstate Biotechnology

[15] = target: Frk (Homo sapiens, UniProt P42685); experiment: AlphaScreen kinase assay, Frk; conditions: read-out: IC50, activity toward kinase Frk
Excerpt: as §2, §3

[16] = target: Hck (Homo sapiens, UniProt P08631); experiment: AlphaScreen kinase assay, Hck; conditions: read-out: IC50, activity toward kinase Hck
Excerpt: as §2, §3

[17] = target: T11, B-Raf V600E (Homo sapiens, UniProt P15056, V600E); experiment: AlphaScreen kinase assay, B-Raf V600E; conditions: read-out: IC50, activity toward kinase B-Raf V600E
T11 construct: P4254. pFastBacBD-CDC37 BRAF D437-K722-X, V600E; His6 with pFastBac HT leader (TEV site) (N); made in house; host or cells: Sf9 (baculovirus; chaperone CDC37 co-expressed)

[18] = target: PDGFRA (Homo sapiens, UniProt P16234); experiment: AlphaScreen kinase assay, PDGFRA; conditions: read-out: IC50, activity toward kinase PDGFRA
PDGFRA, sequence (P16234 24-1089): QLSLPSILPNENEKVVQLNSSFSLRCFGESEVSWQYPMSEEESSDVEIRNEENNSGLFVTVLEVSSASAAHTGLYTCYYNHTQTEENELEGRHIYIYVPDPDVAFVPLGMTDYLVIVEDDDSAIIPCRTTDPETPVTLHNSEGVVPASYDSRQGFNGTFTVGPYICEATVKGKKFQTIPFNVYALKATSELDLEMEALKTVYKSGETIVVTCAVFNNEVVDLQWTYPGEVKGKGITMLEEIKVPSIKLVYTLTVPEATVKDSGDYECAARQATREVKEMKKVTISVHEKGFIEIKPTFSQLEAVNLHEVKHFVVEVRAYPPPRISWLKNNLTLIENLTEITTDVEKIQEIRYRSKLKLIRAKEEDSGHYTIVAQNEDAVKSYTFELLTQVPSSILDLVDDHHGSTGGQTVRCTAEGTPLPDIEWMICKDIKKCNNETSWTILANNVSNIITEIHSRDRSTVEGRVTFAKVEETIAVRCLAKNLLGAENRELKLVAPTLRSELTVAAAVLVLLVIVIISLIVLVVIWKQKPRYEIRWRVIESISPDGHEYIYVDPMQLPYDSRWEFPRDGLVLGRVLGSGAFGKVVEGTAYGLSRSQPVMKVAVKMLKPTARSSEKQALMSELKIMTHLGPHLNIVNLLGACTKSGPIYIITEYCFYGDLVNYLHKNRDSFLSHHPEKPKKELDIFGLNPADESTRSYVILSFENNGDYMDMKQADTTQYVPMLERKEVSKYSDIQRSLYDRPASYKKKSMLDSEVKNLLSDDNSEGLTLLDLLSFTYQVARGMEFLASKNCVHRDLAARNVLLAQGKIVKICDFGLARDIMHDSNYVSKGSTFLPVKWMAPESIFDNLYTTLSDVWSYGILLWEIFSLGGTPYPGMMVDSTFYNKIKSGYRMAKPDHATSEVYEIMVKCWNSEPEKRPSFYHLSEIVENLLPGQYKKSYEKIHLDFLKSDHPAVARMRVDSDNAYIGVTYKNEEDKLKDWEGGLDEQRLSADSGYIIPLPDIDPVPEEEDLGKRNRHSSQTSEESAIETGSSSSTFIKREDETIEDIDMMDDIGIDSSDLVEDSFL
Excerpt: as §2, §3

[19] = target: T12, Fms (Homo sapiens, UniProt P07333); experiment: AlphaScreen kinase assay, Fms; conditions: read-out: IC50, activity toward kinase Fms
T12 construct: purchased Upstate Biotechnology

[20] = target: T13, c-Raf-1 (Homo sapiens, UniProt P04049); experiment: AlphaScreen kinase assay, c-Raf-1; conditions: read-out: IC50, activity toward kinase c-Raf-1
T13 construct: purchased Upstate Biotechnology

[21] = target: T14, Src (Homo sapiens, UniProt P12931); experiment: AlphaScreen kinase assay, Src; conditions: read-out: IC50, activity toward kinase Src
T14 construct: P1144. pET-N6 BI-PTP SRC V86-L536-X; made in house
T14 sequence (P12931 with tags, fused parts or gaps): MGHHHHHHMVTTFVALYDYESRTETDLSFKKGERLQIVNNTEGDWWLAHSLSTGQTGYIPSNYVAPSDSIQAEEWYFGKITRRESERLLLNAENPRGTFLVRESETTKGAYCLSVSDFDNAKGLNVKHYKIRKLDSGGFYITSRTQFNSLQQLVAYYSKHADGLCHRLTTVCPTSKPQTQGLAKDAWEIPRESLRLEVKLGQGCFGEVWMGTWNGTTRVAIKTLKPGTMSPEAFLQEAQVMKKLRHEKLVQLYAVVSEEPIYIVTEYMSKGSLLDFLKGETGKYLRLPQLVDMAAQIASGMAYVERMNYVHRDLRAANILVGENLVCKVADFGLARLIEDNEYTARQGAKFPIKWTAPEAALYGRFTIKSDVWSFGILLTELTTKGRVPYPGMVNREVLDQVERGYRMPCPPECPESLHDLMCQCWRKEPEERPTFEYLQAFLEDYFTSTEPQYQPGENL

[22] = target: T15, Fak (Homo sapiens, UniProt Q05397); experiment: AlphaScreen kinase assay, Fak; conditions: read-out: IC50, activity toward kinase Fak
T15 construct: P1358.pFastBacHtb FAK S411-Q686-X; His6 with pFastBacHTb leader (TEV site) (N); made in house; host or cells: Sf9 (baculovirus)
T15 sequence (Q05397 411-686): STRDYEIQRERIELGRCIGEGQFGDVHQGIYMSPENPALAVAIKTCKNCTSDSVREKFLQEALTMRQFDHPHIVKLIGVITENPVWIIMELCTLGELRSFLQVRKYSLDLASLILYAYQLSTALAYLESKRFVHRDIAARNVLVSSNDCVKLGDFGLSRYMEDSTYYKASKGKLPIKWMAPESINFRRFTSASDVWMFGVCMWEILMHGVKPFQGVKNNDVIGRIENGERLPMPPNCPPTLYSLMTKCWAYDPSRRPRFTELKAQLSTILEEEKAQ

Row | pIC50 [1] | pIC50 [2] | pIC50 [3] | pIC50 [4] | pIC50 [6] | pIC50 [8] | pIC50 [9] | pIC50 [11] | pIC50 [13] | pIC50 [15] | pIC50 [16] | pIC50 [18] | pIC50 [21] | pIC50 [22] | SMILES | further results
1 | ≥ 5.00 | ≥ 5.00 | ≥ 5.00 | ≥ 5.00 | ≥ 5.00 |  |  |  |  |  |  |  |  |  | O=C(O)c1ccc(Sc2c[nH]c3ncccc23)nc1 [Compound P-0086] | pIC50 [5]: ≥ 5.00; pIC50 [7]: ≥ 5.00
2 |  | ≥ 5.00 | ≥ 5.00 |  | ≥ 5.00 |  |  |  |  |  |  |  |  |  | Cc1cccc(-c2ccnc3[nH]cc(Sc4cccs4)c23)c1 [Compound P-0104] | 
3 | ≥ 5.00 | ≥ 5.00 |  |  | ≥ 5.00 |  |  |  |  |  |  |  |  |  | FC(F)(F)c1cccc(-c2ccnc3[nH]cc(Sc4ccncc4)c23)c1 [Compound P-0226] | 
4 |  |  | ≥ 5.00 | ≥ 5.00 |  | ≥ 5.00 | ≥ 5.00 | ≥ 5.00 | ≥ 5.00 | ≥ 5.00 | ≥ 5.00 | ≥ 5.00 | ≥ 5.00 | ≥ 5.00 | O=C(c1c(F)ccc(NS(=O)(=O)c2ccccc2)c1F)c1c[nH]c2ncc(Cl)cc12 [Compound P-0885, N-[3-(5-Chloro-1H-pyrrolo[2,3-b]pyridine-3-carbonyl)-2,4-difluorophenyl]-benzenesulfonamide] | pIC50 [10]: ≥ 5.00; pIC50 [12]: ≥ 5.00; pIC50 [14]: ≥ 5.00; pIC50 [17]: ≥ 5.00; pIC50 [19]: ≥ 5.00; pIC50 [20]: ≥ 5.00
5 |  |  | ≥ 5.00 | ≥ 5.00 |  | ≥ 5.00 | ≥ 5.00 | ≥ 5.00 | ≥ 5.00 | ≥ 5.00 | ≥ 5.00 | ≥ 5.00 | ≥ 5.00 | ≥ 5.00 | CCCS(=O)(=O)Nc1ccc(F)c(C(=O)c2c[nH]c3ncc(Cl)cc23)c1F [Compound P-0933, Propane-1-sulfonic acid [3-(5-chloro-1H-pyrrolo[2,3-b]pyridine-3-carbonyl)-2,4-difluoro-phenyl]-amide] | 
